From patent publication US20260325500A1, “METHODS AND COMPOSITIONS FOR TREATING ACUTE STRESS DISORDER” (BioXcel Therapeutics, Inc., priority 2022, published 2026) come the findings set out here.

The subject of series [1] is aggressive behavior of male Swiss albino mice. Put plainly: Resident intruder task, aggressive behavior (Example 5). As to conditions: for agitation/aggression in resident mice: mouse, in vivo. Format: in vivo. The text has this: Animal groups: Swiss albino male mice were distributed in 13 different experimental groups with 6-14 mice per group as illustrated in Table 9. Each experimental group was also coded so that the experimenter became unaware of the true experimental group during RI assay.
Rationale: The resident-intruder stress is an ethologically relevant model to examine mechanisms underlying stress-related psychiatric disorders. In male rats, a single resident-intruder exposure activates LC neurons. Considered as a major stress response system, LC-NE activation is critical in maintaining arousal in response to acute stress.
Study drugs: The test substances (Dexmedetomidine hydrochloride, latrepirdine dihydrochloride hydrate and sodium valproate) were dissolved in 0.9% normal saline which served as the vehicle. β-Estradiol was dissolved in 0.9% normal saline.
Study design and dosing: Bilateral ovariectomy surgery was carried out in 3-4 weeks old female Swiss albino mice as per the standard methods (Alagwu and Nneli, 2005). Animals were anesthetized using Avertin (2,2,2-Tribromoethanol) at 250 mg/kg, i.p. and were laid down on the surgery table and fixed with adhesive plaster. A midline incision was made on the dorsal region below the rib and 1 cm lateral to the either side of midline, a small incision was made on fascia to isolate the adipose fat supporting the ovaries. By slowly pulling out the fat tissue, the ovary was identified and excised the following uterine horn ligation with silk sutures. Fascia was covered with sutures and similar procedure was repeated on the other side as well. Superficial skin layers were sutured and gentamicin (80 mg/kg, s.c.) was given as antibiotic and meloxicam (4 mg/kg, s.c.) as analgesic, then povidone iodine was applied on superficial skin layers. Polyethylene glycol (PEG) was applied to prevent drying of eye balls and kept for recovery period of 3 weeks (surgery was carried by a single experimenter). Male Swiss albino mice (25-40 grams, Resident animals) was housed individually i.e., 1 animal/cage with an ovariectomized female Swiss albino mice for a period of three weeks (Isolated habituation). During this habituation period, female mice were treated with β-Estradiol at a dose of 0.2 mg/kg, s.c. Male Swiss albino mice (10-20 grams, Intruder animals) were housed 5 animals/cage for a period of five days (Social habituation). On the day of exposure, animals were brought into the experimental room 60 minutes before starting the experiment, to habituate them to the experimental conditions. […]
Statistical analysis: Data obtained was compared with basal scoring by using Student's paired two tailed t-test. Duration of attack, and latency of attack between the groups was analyzed using One-Way ANOVA followed by Bonferroni's posthoc test. […]

Series [2] concerns motor activity (locomotion) and sedation behavior of male Swiss albino mice. Put plainly: Open field test, motor activity (locomotion) and sedation (Example 7). Format: in vivo. The procedure: Rationale: The spontaneous locomotor activity in terms of total distance traveled is measured in open field test. Comparatively lower distance traveled would indicate either less motor activity or sedation.
Animal groups: Swiss albino male mice (6-7 weeks old; 25-40 g weight) were distributed in 10 different experimental groups with 12 […] per group as illustrated in Table
Study drugs: The test substances (Dexmedetomidine hydrochloride and latrepirdine dihydrochloride hydrate) were dissolved in 0.9% normal saline which served as the vehicle.
Study design and dosing: Mice were brought to the laboratory and allowed to acclimatize to the environment for at least 7 days. The open field test was done in lighting conditions of 40 lux light. The mice were dosed as per the grouping in Table 10. After a post dose interval of 60 minutes, 4 mice from a group were placed in the open field and the movement was tracked for a period of 30 minutes. Once the trial was over the mice were removed from the open field and the arena was cleaned. Following this, next set of 4 mice were placed in the arena and tracked.
Statistical analysis: The distance travelled for a period of 30 minutes was analyzed in bins of 5 minutes and was compared with that of the vehicle group using one-way ANOVA followed by Dunnett's test. All statistical analyses were performed using Graph pad prism software package (Version 7 or Higher) and p value below 0.05 was considered as significant.

The mark [3] stands for this setting: 1 mg/kg, 3 mg/kg and 10 mg/kg, i.p.

Where a name gives a salt, the structure may show the parent alone.

As to `Cc1ccc2c(c1)c1c(n2CCc2ccc(C)nc2)CCN(C)C1` [latrepirdine dihydrochloride hydrate], the duration of attack result in series [1] (setting [3]) was “significantly decreased”. Moreover, in series [1], the “agitation/aggression in resident mice” value was “decreased agitation/aggression”. In addition, in series [2] (setting [3]), the distance traveled result was “did not show any significant reduction in distance traveled”.
For the compound `Cc1ccc2c(c1)c1c(n2CCc2ccc(C)nc2)CCN(C)C1` [latrepirdine, 2,8-dimethyl-5-[2-(6-methylpyridin-3-yl)ethyl]-3,4-dihydro-1H-pyrido[4,3-b]indole], in series [1] (latrepirdine 10 mg/kg, i.p.), the “mean duration of attack” value was determined as 36.87 s. For the same compound, the “agitation/aggression in resident mice” value in series [1] was “significantly decreased agitation/aggression in resident mice”. The locomotion and sedation entry in series [2] (latrepirdine, open field test) was “did not cause any reduction in locomotion nor caused sedation”.
